Several values for one entry are separate records, joined by “and”; a condition that tells them apart may be missing. Equal values may be shown once.
System: TLR signalling pathway genes
Assay: Toll-like Receptor Pathway PCR array of ankles
Type: in vivo, C57BL/6 mice
Conditions: for S40/SIA (fold change) / log2(fold change) S40/SIA: S40 group vs SIA group
Method: Total RNA was isolated from the right ankles using the TRIzol Reagent (Invitrogen) and purified with RNeasy Mini Kit and RNase-Free DNase Set (Qiagen). RNA quality was determined using a spectrophotometer and was reversely transcribed using Wcgene® mRNA cDNA kit. The complementary DNA was used on the Toll-like Receptor Pathway PCR Array plate (Wcgene® biotech, China).

Compound: C=C1C(OC(=O)c2ccccc2)CC2C(C=C(C)C(=O)C3(OC(C)=O)CC(C)C(OC(=O)c4ccccc4)C3C1OC(C)=O)C2(C)C (stereo not shown) [EFL2, Euphorbia factor L2]
- S40/SIA (fold change) (Irak2 mRNA): 0.4814
- log2(fold change) S40/SIA (Irak2 mRNA): -1.055
- fold-GAPDH, Irak3 (Irak3 mRNA in ankles of STA mice, relative to GAPDH, one value per animal (samples S401-S405)): 0.01639 and 0.02176 and 0.01462 and 0.00868
- S40/SIA (fold change) (Irak3 mRNA): 0.4891
- log2(fold change) S40/SIA (Irak3 mRNA): -1.032
- fold-GAPDH, Irak4 (Irak4 mRNA in ankles of STA mice, relative to GAPDH, one value per animal (samples S401-S405)): 0.005444 and 0.007871 and 0.004771 and 0.003248
- fold-GAPDH, Irf1 (Irf1 mRNA in ankles of STA mice, relative to GAPDH, one value per animal (samples S401-S405)): 0.006938 and 0.008232
- S40/SIA (fold change) (Irf1 mRNA): 0.3319
- log2(fold change) S40/SIA (Irf1 mRNA): -1.591
- fold-GAPDH, Irf3 (Irf3 mRNA in ankles of STA mice, relative to GAPDH, one value per animal (samples S401-S405)): 0.01116 and 0.01143 and 0.004857
- S40/SIA (fold change) (Irf3 mRNA): 0.3241
- log2(fold change) S40/SIA (Irf3 mRNA): -1.626
- fold-GAPDH, Jun (Jun mRNA in ankles of STA mice, relative to GAPDH, one value per animal (samples S401-S405)): 0.04078 and 0.0443 and 0.03642 and 0.03036
- S40/SIA (fold change) (Jun mRNA): 0.3678
- log2(fold change) S40/SIA (Jun mRNA): -1.443
- fold-GAPDH, Ly86 (Ly86 mRNA in ankles of STA mice, relative to GAPDH, one value per animal (samples S401-S405)): 0.008619 and 0.01651 and 0.01407 and 0.001011
- fold-GAPDH, Ly96 (Ly96 mRNA in ankles of STA mice, relative to GAPDH, one value per animal (samples S401-S405)): 0.00648 and 0.008818 and 0.008037 and 0.003545
- S40/SIA (fold change) (Ly96 mRNA): 0.3878
- log2(fold change) S40/SIA (Ly96 mRNA): -1.367
- fold-GAPDH, Map2k3 (Map2k3 mRNA in ankles of STA mice, relative to GAPDH, one value per animal (samples S401-S405)): 0.0383 and 0.04062 and 0.04366 and 0.0009844
- fold-GAPDH, Map2k4 (Map2k4 mRNA in ankles of STA mice, relative to GAPDH, one value per animal (samples S401-S405)): 0.006054 and 0.009032 and 0.01171 and 0.005161
- S40/SIA (fold change) (Map2k4 mRNA): 0.8651
- log2(fold change) S40/SIA (Map2k4 mRNA): -0.209
- fold-GAPDH, Map3k1 (Map3k1 mRNA in ankles of STA mice, relative to GAPDH, one value per animal (samples S401-S405)): 0.006062 and 0.005781 and 0.1236
- fold-GAPDH, Map3k7 (Map3k7 mRNA in ankles of STA mice, relative to GAPDH, one value per animal (samples S401-S405)): 0.01592 and 0.021 and 0.01646 and 0.01133
- fold-GAPDH, Mapk8ip3 (Mapk8ip3 mRNA in ankles of STA mice, relative to GAPDH, one value per animal (samples S401-S405)): 0.001064 and 0.001038
- fold-GAPDH, Mapk8 (Mapk8 mRNA in ankles of STA mice, relative to GAPDH, one value per animal (samples S401-S405)): 0.01945 and 0.02479 and 0.0101
- fold-GAPDH, Mapk9 (Mapk9 mRNA in ankles of STA mice, relative to GAPDH, one value per animal (samples S401-S405)): 0.001275 and 0.001267 and 0.00173 and 0.000754
- fold-GAPDH, Muc13 (Muc13 mRNA in ankles of STA mice, relative to GAPDH, one value per animal (samples S401-S405)): 6.559e-5 and 0.0002674 and 0.000223 and 0.0001076
- fold-GAPDH, Myd88 (Myd88 mRNA in ankles of STA mice, relative to GAPDH, one value per animal (samples S401-S405)): 0.009066 and 0.0089 and 0.006533 and 0.004478
- S40/SIA (fold change) (Myd88 mRNA): 0.1447
- log2(fold change) S40/SIA (Myd88 mRNA): -2.789
- fold-GAPDH, Nfkb1 (Nfkb1 mRNA in ankles of STA mice, relative to GAPDH, one value per animal (samples S401-S405)): 0.02137 and 0.03037 and 0.044 and 0.01259
- fold-GAPDH, Nfkb2 (Nfkb2 mRNA in ankles of STA mice, relative to GAPDH, one value per animal (samples S401-S405)): 0.005983 and 0.008129 and 0.004372 and 0.004079
- S40/SIA (fold change) (Nfkb2 mRNA): 0.2395
- log2(fold change) S40/SIA (Nfkb2 mRNA): -2.062
- fold-GAPDH, Nfkbia (Nfkbia mRNA in ankles of STA mice, relative to GAPDH, one value per animal (samples S401-S405)): 0.03064 and 0.03111 and 0.02056 and 0.01675
- S40/SIA (fold change) (Nfkbia mRNA): 0.2445
- log2(fold change) S40/SIA (Nfkbia mRNA): -2.032
- fold-GAPDH, Nfkbib (Nfkbib mRNA in ankles of STA mice, relative to GAPDH, one value per animal (samples S401-S405)): 0.00388 and 0.005737 and 0.004539 and 0.002397
- S40/SIA (fold change) (Nfkbib mRNA): 0.4073
- log2(fold change) S40/SIA (Nfkbib mRNA): -1.2959
- fold-GAPDH, Nfrkb (Nfrkb mRNA in ankles of STA mice, relative to GAPDH, one value per animal (samples S401-S405)): 0.003341 and 0.001769 and 0.003291
- fold-GAPDH, Nr2c2 (Nr2c2 mRNA in ankles of STA mice, relative to GAPDH, one value per animal (samples S401-S405)): 0.008167 and 0.009954 and 0.006912 and 0.004742
- S40/SIA (fold change) (Nr2c2 mRNA): 0.5521
- log2(fold change) S40/SIA (Nr2c2 mRNA): -0.8571
- fold-GAPDH, Peli1 (Peli1 mRNA in ankles of STA mice, relative to GAPDH, one value per animal (samples S401-S405)): 0.01623 and 0.02035 and 0.01296 and 0.0006428
- S40/SIA (fold change) (Peli1 mRNA): 0.462
- log2(fold change) S40/SIA (Peli1 mRNA): -1.114
- fold-GAPDH, Pglyrp1 (Pglyrp1 mRNA in ankles of STA mice, relative to GAPDH, one value per animal (samples S401-S405)): 0.001422 and 0.0004159 and 0.002383
- S40/SIA (fold change) (Pglyrp1 mRNA): 0.2161
- log2(fold change) S40/SIA (Pglyrp1 mRNA): -2.21
- fold-GAPDH, Ppara (Ppara mRNA in ankles of STA mice, relative to GAPDH, one value per animal (samples S401-S405)): 0.001398 and 0.003006 and 0.002272 and 0.0004292
- fold-GAPDH, Ptgs2 (Ptgs2 mRNA in ankles of STA mice, relative to GAPDH, one value per animal (samples S401-S405)): 0.001434 and 0.000397 and 0.0002674 and 0.0003018
- S40/SIA (fold change) (Ptgs2 mRNA): 0.03786
- log2(fold change) S40/SIA (Ptgs2 mRNA): -4.723
- S40/SIA (fold change) (Rel mRNA): 0.2762
- log2(fold change) S40/SIA (Rel mRNA): -1.8562
- S40/SIA (fold change) (Ticam1 mRNA): 0.59
- log2(fold change) S40/SIA (Ticam1 mRNA): -0.7611
- S40/SIA (fold change) (Tlr2 mRNA): 0.1682
- log2(fold change) S40/SIA (Tlr2 mRNA): -2.571
- S40/SIA (fold change) (Tlr3 mRNA): 0.7859
- log2(fold change) S40/SIA (Tlr3 mRNA): -0.3477
- S40/SIA (fold change) (Tlr4 mRNA): 0.5705
- log2(fold change) S40/SIA (Tlr4 mRNA): -0.8096
- S40/SIA (fold change) (Tlr5 mRNA): 0.188
- log2(fold change) S40/SIA (Tlr5 mRNA): -2.411
- S40/SIA (fold change) (Tlr7 mRNA): 0.09461
- log2(fold change) S40/SIA (Tlr7 mRNA): -3.402

Reference: article PMC8691750, “Euphorbia Factor L2 ameliorates the Progression of K/BxN Serum-Induced Arthritis by Blocking TLR7 Mediated IRAK4/IKKβ/IRF5 and NF-kB Signaling Pathways” (Frontiers in Pharmacology, 2021)
